We go through six molecules from article PMC2346451 (PLoS ONE, 2008).

For assay [1], the system named is dorsal root ganglion neurons. In words: Whole-cell patch clamp of acutely isolated dorsal root ganglion neurons. It is filed as cell-based, rat. The source says: Dorsal root ganglion neurons from all spinal levels were removed from postnatal day 12 to 20 Sprague Dawley rats and the nerve roots trimmed. Calcium- and magnesium-free (CMF) Hank's solution contained (in mM): 136.9 sodium chloride, 5.4 potassium chloride, 0.34 dibasic sodium orthophosphate, 0.44 monopotassium phosphate, 5.6 glucose, 5 4-(2-hydroxyethyl)-1-piperazineethanesulfonic acid, 0.005% phenol red, pH 7.4. CMF Hank's was used throughout the isolation and enzymatic treatments. The isolated ganglia were treated for 20 minutes at 37°C with 20 U/ml of papain (Worthington Biochemical, Lakewood, NJ) and 5 mM cysteine. The ganglia were then transferred to CMF Hank's with 3 mg/ml collagenase (type I; Worthington) and 4 mg/ml dispase (neutral type II; Roche Applied Science, Indianapolis, IN) for 20 minutes at 37°C. Individual neurons were dispersed by trituration through a fire-polished glass Pasteur pipette in 3 ml of media containing DMEM, 5% horse serum, 10% fetal bovine serum, 1% penicillin/streptomycin, and 100 ng/ml Nerve Growth Factor (7S subunit; Invitrogen). The neurons were preplated in tissue culture-treated Petri dishes for 1 hour when used for electrophysiology (3 hours for calcium imaging), and then plated on poly-L-lysine (1 mg/ml)-coated glass coverslips. Dorsal root ganglion neurons were allowed to settle for 1–2 hours at 37°C before patching or imaging over the next 6 hours.
(§1) Electrophysiological experiments were performed using the whole-cell patch-clamp technique at room temperature. Modified Ringer's solution with low chloride and nominal calcium contained (in mM): 130 sodium hydroxide, 5 potassium chloride, 1 magnesium chloride, 10 sodium 4-(2-hydroxyethyl)-1-piperazineethanesulfonic acid, 10 2-(N-morpholino)ethanesulfonic acid, and 20 glucose (pH 7.4; 310 milli-osmolar). […] 2 mM calcium chloride was included in the external solution where noted. To activate TRPV1, the modified Ringer's solution was made at pH 5 (low pH solution) and the chloride concentration was kept to a minimum to prevent contamination of the TRPV1 currents with acid-activated chloride currents. For recordings from heterologously expressing cells, the internal pipette solution contained (in mM): 125 cesium-Methanesulfonate, 10 cesium (1.2-bis(o-aminophenoxy)ethane-N,N,N',N'-tetraacetic acid, 8 sodium chloride, 4 magnesium adenosine triphosphate, and 10 HEPES (pH 7.2; 290 mOSM; nominal free calcium concentrations). For TRPA1 and dorsal root ganglion recordings, the internal pipette solution contained (in mM): 110 cesium-Methanesulfonate, 0.5 cesium4BAPTA, 8 sodium chloride, 0.2 calcium chloride, 4 magnesium-ATP, 4 sodium-GTP, and 10 4-(2-hydroxyethyl)-1-piperazineethanesulfonic acid (pH 7.2; 290 mOSM; 100 nM free calcium internal). MaxChelator was used to calculate the free calcium concentration (http://www.stanford.edu/cpatton/maxc.html).
(§2) Recordings were obtained using an Axopatch 200B amplifier, Digidata 1322A analog-to-digital converter, and pClamp 8.01 software (Molecular Devices, Union City, CA). Data were low-pass filtered at 2 kHz and digitized at 5 kHz. Borosilicate glass pipettes (World Precision Instruments, Sarasota, FL) were typically 3 MΩ pipette resistance after fire polishing. Cell capacitance was measured for each cell, and access resistance compensated to ∼80%. Recordings were begun ∼5 minutes after initial rupture to ensure initial steady state conditions. Current-voltage (I-V) relations were obtained using a ramp protocol. Voltage ramps (400 ms) from −100 to +40 or +100 mV were applied every 1–2 seconds and the holding potential was either −70 mV or 0 mV (see Figure Legends). A 40 ms step was added at the beginning and end of the ramp (i.e. at −100 mV, +40 mV or +100 mV). Liquid junction potentials were not corrected.

For a further assay, the target named is rat TRPV1 (rTRPV1) (Rattus norvegicus, UniProt O35433). The assay can be described thus: Whole-cell patch clamp of rat TRPV1 expressed in HEK-293T cells. The conditions noted are these: for Activation of TRPV1 current: analyzed at −40 mV and +40 mV; for Decrease of pH 5-evoked TRPV1 current: 300 µM, −40 mV. It is filed as cell-based. How it is done: (§3) Transformed human embryonic kidney-293 (HEK-293T) cells were grown in Dulbecco's modified Eagle's medium (DMEM)+F-12 supplemented with 10% fetal calf serum, and 1% penicillin/streptomycin in 5% CO2 at 37°C. Cells grown to 90% confluence in 35 mm Petri dishes were transiently transfected with plasmid DNA encoding a TRP channel construct (1 µg). Rat TRPV1 (rTRPV1) was cloned into an enhanced green fluorescent protein-containing vector (pTracer-CMV2; Invitrogen, Carlsbad, CA). Chicken TRPV1 (cTRPV1), the chicken rat TRPV1 chimera (crcTRPV1), rat TRPV2 (rTRPV2), mouse TRPV3 (mTRPV3), mouse TRPV4 (mTRPV4), rat TRPM8 (rTRPM8), and rat TRPA1 (rTRPA1), were cloned into pcDNA3 and co-transfected with enhanced green fluorescent protein (0.1 µg) to follow expression. The cTRPV1 and crcTRPV1 clones were kindly provided by Dr. David Julius. Recordings were carried out 24–36 hours after transfection. Cells were split via trypsin EDTA, plated on glass coverslips at 5–10% confluence, and used 2–3 hours later.
as §1, §2
(§4) The dose response curves were fit with the Hill equation, where [drawing 8] and [A] is the concentration of agonist or blocker, N is the Hill coefficient, and KD is the [A] for Imeasured/Imax = 0.5. The term apparent dissociation constant is used in place of the half concentration of excitation and inhibition. […] Averaged data are presented as mean±standard error (S.E.) throughout. Statistical analysis included paired and unpaired Student's t-test comparisons of the data; p values are reported in the text.

The target of another assay is T1, mouse TRPV3 (mTRPV3) (Mus musculus, UniProt Q8K424).
T1 sequence (Q8K424 1-791): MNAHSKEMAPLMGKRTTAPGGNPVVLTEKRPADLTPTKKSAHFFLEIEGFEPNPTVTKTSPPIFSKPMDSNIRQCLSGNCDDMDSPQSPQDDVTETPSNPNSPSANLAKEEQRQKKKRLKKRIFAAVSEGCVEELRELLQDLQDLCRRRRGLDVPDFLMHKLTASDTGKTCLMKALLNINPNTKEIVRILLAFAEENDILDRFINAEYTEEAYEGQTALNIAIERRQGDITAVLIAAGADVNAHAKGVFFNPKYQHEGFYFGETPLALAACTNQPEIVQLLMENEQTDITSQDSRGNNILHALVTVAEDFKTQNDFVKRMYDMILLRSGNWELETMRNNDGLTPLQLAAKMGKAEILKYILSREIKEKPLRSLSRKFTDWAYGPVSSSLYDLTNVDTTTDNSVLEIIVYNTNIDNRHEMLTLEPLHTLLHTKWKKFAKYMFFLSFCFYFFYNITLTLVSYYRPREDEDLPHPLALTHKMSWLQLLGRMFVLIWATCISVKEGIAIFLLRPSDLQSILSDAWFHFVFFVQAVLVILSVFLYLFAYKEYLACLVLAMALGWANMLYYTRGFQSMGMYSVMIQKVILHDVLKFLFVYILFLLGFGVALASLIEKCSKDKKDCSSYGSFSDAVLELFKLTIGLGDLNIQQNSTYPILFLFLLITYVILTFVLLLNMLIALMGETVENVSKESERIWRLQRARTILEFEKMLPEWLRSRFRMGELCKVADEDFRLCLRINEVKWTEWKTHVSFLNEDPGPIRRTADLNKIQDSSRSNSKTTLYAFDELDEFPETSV
The assay can be described thus: Whole-cell patch clamp of mouse TRPV3 expressed in HEK-293T cells. The format is cell-based. How it is done:
as §3, §1, §2, §4

For the next assay, the target named is rat TRPA1 (rTRPA1) (Rattus norvegicus, UniProt Q6RI86). The assay can be described thus: Whole-cell patch clamp of rat TRPA1 expressed in HEK-293T cells. The format is cell-based. As for the experimental part:
as §3, §1, §2, §4

Another assay concerns the target rat TRPM8 (rTRPM8) (Rattus norvegicus, UniProt Q8R455). The assay can be described thus: Whole-cell patch clamp of rat TRPM8 expressed in HEK-293T cells. The format is cell-based. How it is done:
as §3, §1, §2, §4

[2] abbreviates: after citral inhibition of TRPV1.

Chain of rat TRPA1 (rTRPA1) (Q6RI86 whole entry): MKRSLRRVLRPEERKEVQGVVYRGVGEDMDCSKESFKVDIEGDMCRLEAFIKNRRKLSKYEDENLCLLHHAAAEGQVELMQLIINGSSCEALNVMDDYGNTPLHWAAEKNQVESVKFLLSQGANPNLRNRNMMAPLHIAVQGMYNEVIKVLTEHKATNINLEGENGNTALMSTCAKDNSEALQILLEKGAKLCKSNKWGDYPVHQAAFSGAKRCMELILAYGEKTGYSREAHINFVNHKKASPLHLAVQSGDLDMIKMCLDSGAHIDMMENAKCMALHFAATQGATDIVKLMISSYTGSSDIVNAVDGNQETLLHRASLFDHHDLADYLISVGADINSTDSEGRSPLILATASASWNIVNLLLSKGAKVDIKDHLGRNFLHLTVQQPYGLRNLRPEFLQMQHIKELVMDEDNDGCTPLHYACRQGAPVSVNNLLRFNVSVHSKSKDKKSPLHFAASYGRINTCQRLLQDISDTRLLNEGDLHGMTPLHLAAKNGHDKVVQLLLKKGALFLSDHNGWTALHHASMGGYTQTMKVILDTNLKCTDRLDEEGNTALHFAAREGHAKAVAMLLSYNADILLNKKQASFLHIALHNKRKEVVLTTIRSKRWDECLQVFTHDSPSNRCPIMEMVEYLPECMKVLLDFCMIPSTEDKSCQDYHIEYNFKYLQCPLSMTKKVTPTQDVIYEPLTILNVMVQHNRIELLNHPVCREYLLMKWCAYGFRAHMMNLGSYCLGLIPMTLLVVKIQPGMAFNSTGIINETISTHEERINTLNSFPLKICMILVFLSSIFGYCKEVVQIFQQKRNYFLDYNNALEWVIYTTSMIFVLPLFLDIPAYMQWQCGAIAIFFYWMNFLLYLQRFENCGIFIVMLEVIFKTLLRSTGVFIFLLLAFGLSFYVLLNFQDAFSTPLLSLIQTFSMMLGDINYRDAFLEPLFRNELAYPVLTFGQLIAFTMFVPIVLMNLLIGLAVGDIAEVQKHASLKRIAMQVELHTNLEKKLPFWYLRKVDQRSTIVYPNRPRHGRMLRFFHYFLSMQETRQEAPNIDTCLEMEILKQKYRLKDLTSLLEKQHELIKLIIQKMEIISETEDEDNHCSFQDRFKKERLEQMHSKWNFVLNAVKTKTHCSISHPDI
Chain of rat TRPM8 (rTRPM8) (Q8R455 whole entry): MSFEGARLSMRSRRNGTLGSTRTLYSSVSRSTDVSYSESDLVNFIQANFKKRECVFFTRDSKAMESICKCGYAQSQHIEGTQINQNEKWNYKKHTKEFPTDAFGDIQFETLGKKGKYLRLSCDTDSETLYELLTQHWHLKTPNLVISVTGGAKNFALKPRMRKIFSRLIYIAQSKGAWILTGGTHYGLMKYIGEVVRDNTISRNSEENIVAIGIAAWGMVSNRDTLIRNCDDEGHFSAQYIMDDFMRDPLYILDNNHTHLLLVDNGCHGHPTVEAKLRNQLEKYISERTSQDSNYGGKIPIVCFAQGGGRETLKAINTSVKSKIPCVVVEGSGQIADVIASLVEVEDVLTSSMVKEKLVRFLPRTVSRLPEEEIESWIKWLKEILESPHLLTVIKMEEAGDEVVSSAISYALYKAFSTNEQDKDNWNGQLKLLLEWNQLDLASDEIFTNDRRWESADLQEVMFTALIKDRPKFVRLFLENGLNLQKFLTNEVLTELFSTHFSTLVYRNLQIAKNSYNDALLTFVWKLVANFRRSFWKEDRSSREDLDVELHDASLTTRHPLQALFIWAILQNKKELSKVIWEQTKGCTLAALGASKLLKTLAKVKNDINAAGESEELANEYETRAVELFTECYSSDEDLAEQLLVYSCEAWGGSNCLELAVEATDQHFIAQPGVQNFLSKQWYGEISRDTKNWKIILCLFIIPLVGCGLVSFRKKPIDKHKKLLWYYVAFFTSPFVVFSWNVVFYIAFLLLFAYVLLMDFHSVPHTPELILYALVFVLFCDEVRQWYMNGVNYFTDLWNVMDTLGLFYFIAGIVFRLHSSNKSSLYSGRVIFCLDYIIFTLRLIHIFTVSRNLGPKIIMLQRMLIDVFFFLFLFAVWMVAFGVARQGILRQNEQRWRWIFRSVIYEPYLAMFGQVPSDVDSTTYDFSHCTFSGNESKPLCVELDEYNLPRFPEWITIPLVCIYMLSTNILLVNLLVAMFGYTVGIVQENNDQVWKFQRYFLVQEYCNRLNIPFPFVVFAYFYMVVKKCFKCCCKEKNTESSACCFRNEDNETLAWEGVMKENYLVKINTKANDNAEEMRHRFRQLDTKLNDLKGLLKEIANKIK
Chain of rat TRPV1 (rTRPV1) (O35433 whole entry): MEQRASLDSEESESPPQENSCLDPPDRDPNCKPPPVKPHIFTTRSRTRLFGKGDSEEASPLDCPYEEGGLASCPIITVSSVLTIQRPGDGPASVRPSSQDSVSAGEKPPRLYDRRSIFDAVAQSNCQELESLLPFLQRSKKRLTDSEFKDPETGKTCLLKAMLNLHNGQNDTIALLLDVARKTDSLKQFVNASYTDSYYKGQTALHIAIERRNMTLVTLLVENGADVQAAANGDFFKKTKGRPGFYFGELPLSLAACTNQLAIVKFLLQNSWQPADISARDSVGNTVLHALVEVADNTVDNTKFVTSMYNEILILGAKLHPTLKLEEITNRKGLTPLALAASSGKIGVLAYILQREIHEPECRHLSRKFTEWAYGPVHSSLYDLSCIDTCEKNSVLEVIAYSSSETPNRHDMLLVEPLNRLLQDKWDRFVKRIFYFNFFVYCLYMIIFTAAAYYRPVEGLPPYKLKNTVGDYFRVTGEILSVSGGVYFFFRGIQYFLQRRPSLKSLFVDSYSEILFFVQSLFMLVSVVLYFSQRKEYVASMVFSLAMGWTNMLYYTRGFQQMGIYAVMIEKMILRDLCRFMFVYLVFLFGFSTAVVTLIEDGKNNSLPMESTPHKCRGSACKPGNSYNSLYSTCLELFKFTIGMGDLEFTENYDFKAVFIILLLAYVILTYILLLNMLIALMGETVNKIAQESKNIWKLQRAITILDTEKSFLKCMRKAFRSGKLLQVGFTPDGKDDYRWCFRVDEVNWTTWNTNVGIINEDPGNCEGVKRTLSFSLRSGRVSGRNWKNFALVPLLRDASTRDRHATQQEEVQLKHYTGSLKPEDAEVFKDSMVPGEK

Turning to `NCCOB(c1ccccc1)c1ccccc1` [2-aminoethyldiphenyl borate, reference compound], the “Potentiation of current by repeated application, representative neuron” value in assay [1] (+100 mV) came to 2.3 fold. In assay [1] (setting [2]), the “Cells with evoked currents among cells in which TRPV1 was inhibited” value was 27 of 30 and the “Increase of current in cells in which TRPV1 was inhibited” value came out at 3±0.4 fold. Further, in assay [1] (second responsive population (six of twelve neurons)), the “Potentiation of current by repetitive application” value is given as 1.7±0.3 fold.
Regarding `CC12CCC(CC1=O)C2(C)C` (stereo not drawn) [camphor, reference compound], the “Increase in outward current” value in assay [1] (second 2-aminoethyldiphenyl borate responsive population) is recorded as 1.3 fold.
Take `CC(C)=CCC/C(C)=C/C=O` [geranial]: the “Activation of TRPV1 current” value on rat TRPV1 (rTRPV1) is “weakly activated”. In addition, on mouse TRPV3 (mTRPV3), the “Activation of TRPV3 current” value is “weakly activated”. In addition, the “Activation of TRPA1 current” value at rat TRPA1 (rTRPA1) is on record as “weakly activated”. The “Activation of TRPM8 current” value on rat TRPM8 (rTRPM8) was “weakly activated”.
In the case of `CC(C)=CCC/C(C)=C/CO` [geraniol], at rat TRPV1 (rTRPV1), the “Decrease of pH 5-evoked TRPV1 current” value is recorded as 45% and the “Activation of TRPV1 current” value was “weakly activated”. For the same molecule, at mouse TRPV3 (mTRPV3), the “Activation of TRPV3 current” value is recorded as “weakly activated”. Besides, the “Activation of TRPA1 current” value on rat TRPA1 (rTRPA1) is “weakly activated”. Besides, the “Block of inward TRPA1 current” value on rat TRPA1 (rTRPA1) (1 mM, −100 mV, n = 9) was 70%. Further, the “Activation of TRPM8 current” value on rat TRPM8 (rTRPM8) is reported as “weakly activated”.
For the molecule `CC(C)=CCC/C(C)=C\C=O` [neral], at rat TRPV1 (rTRPV1), the “Activation of TRPV1 current” value was “weakly activated”. Besides, the “Activation of TRPV3 current” value at mouse TRPV3 (mTRPV3) was “weakly activated”. In addition, the “Activation of TRPA1 current” value at rat TRPA1 (rTRPA1) is given as “weakly activated”. Also, at rat TRPM8 (rTRPM8), the “Activation of TRPM8 current” value is recorded as “weakly activated”.
As to `CC(C)=CCC/C(C)=C\CO` [nerol], at rat TRPV1 (rTRPV1), the “Decrease of pH 5-evoked TRPV1 current” value worked out at 50% and the “Activation of TRPV1 current” value is recorded as “weakly activated”. Also, the “TRPV1 current recovered after washout” value at rat TRPV1 (rTRPV1) (1 mM, 5 minutes after washout, in 3 of 4 cells) is given as under 1%. Moreover, the inhibition at 1000 µM at rat TRPV1 (rTRPV1) (HEK-293T, pH 5, 1 mM, sustained after 5 minutes washout, read-out: Inhibition of pH 5-evoked TRPV1 current) was found to be 100%. In addition, the “Activation of TRPV3 current” value on mouse TRPV3 (mTRPV3) is “weakly activated”. In addition, the “Activation of TRPA1 current” value at rat TRPA1 (rTRPA1) is “weakly activated”. Moreover, at rat TRPA1 (rTRPA1) (1 mM, −100 mV, n = 4), the “Increase of TRPA1 current on second application” value is listed as 2 fold. For the same molecule, the “Activation of TRPM8 current” value on rat TRPM8 (rTRPM8) is given as “weakly activated”.
